From patent publication US20050031679A1, “Method for producing liposomal formulations of active ingredients” (priority 1998, published 2005)

Test: Efficiency of inclusion of active ingredient added subsequently to a finished liposome gel
Format: physicochemical
Excerpt: This object is achieved by a method for producing liposomes which comprise as active ingredient at least one physiologically active or/and diagnostic compound, by production of a mixture of membrane-forming amphiphiles, dispersion of the mixture in water and high pressure homogenization of the dispersion until the liposomes are formed, which comprises • (a) adding the active ingredient to any liposome preparation, preferably a liposome gel, which contains at least 20% by weight lipid, and • (b) incubating the active ingredient-containing mixture, where appropriate with mechanical agitation, until • (i) hydrophilic active ingredients are distributed in the liposomes and between the liposomes in accordance with the proportions by volume of aqueous medium inside and outside the liposomes in the preparation (equilibrium state) or • (ii) lipophilic compounds are incorporated in the lipid bilayer, or • (iii) amphiphilic compounds have surmounted the lipid bilayer and are incorporated or associated in the outer regions of the lipid bilayer.
A liposome gel which contains the cytostatic gemcitabine as active component cannot be autoclaved because this antitumor agent promotes the hydrolysis of the phospholipids, leading to complete phospholipid degradation under standard conditions during autoclaving. […]

Structure (SMILES)	efficiency of inclusion (autoclaved liposome gel mixed with concentrated buffered gemcitabine solution, incubation at 60° C. for four hours (equilibrium))	efficiency of inclusion (added as solid substance to the liposome gel, incubated with shaking at 50° C. for 3 hours) [%]
Nc1ccn([C@@H]2O[C@H](CO)[C@@H](O)C2(F)F)c(=O)n1 [gemcitabine]	more than 30%	
C[C@@H]1[C@H](O)[C@@H](C)/C=C/C=C/C=C/C=C/C=C/C=C/C=C/[C@H](O[C@@H]2O[C@H](C)[C@@H](O)[C@H](N)[C@@H]2O)C[C@@H]2O[C@](O)(C[C@@H](O)C[C@@H](O)[C@H](O)CC[C@@H](O)C[C@@H](O)CC(=O)O[C@H]1C)C[C@H](O)[C@H]2C(=O)O [amphotericin B]		95
